Experimental data: patent US11780834B2, “Solid forms of 3-((1R,3R)-1-(2,6-difluoro-4-((1-(3-fluoropropyl)azetidin-3-yl)amino)phenyl)-3-methyl-1,3,4,9-tetrahydro-2H-pyrido[3,4-b]indol-2-yl)-2,2-difluoropropan-1-ol and processes for preparing fused tricyclic compounds comprising a substituted phenyl or pyridinyl moiety, including methods …” (Hoffmann-La Roche Inc., priority 2018, dated 2023)
Several values for one entry are separate records, joined by “and”; a condition that tells them apart may be missing. Equal values may be shown once. Where a name gives a salt, the structure may show the parent alone. Read-outs that look alike come from different tables or passages of the source.

Legend:
[1] = tested on: xenograft models of ER-positive breast cancer
CYP2C8 = target: T1, CYP2C8 (Homo sapiens, UniProt P10632); assay: CYP2C8 inhibition in human liver microsomes; type: in vitro ADME
T1 construct: from tissue; host or cells: human liver microsomes
T1 sequence (P10632 1-490): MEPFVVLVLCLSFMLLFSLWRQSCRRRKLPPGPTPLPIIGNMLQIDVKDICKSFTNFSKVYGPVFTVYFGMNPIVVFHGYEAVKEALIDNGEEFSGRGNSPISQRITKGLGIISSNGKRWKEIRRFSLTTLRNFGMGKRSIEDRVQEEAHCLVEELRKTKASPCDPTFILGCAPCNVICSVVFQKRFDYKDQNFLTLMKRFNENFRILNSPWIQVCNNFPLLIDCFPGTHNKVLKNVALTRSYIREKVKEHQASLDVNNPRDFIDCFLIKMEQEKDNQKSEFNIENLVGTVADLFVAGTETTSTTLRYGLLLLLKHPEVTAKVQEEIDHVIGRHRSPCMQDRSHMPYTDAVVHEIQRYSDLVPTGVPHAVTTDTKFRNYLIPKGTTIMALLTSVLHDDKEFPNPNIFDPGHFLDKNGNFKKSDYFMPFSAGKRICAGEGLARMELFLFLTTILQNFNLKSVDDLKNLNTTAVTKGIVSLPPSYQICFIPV

[2] = monkey, in vivo
[3] = Oral bioavailability in rats and dogs; conditions: rat, dog, in vivo
[4] = tested on: ER-positive breast cancer cell lines; assay: Proliferation of ER-positive breast cancer cell lines in vitro; type: cell-based; conditions: multiple ER-positive breast cancer cell lines, including cells engineered to express clinically relevant ER mutations
[5] = tested on: LBD of both wild-type and mutant ER; assay: Competitive binding to ER ligand-binding domain
[6] = Approximate solubility of Compound B Form B material in 20 solvents at RT; type: physicochemical
Description: Polymorph Screening of L-Tartrate. The solubility of Compound B Form B material was estimated in 20 solvents at RT. (Table 22). Approximately 2 mg solids were added into a 3-mL glass vial. Solvents in Table 6-7 were then added into the vials stepwise until the solids were dissolved or a total volume of 1 mL was reached. Results of Table 22 were used to guide the solvent selection in polymorph screening. Polymorph screening experiments were performed using different solution crystallization or solid phase transition methods.

clinical = conditions: human, in vivo, po
Description: (§1) Patients were enrolled in a dose-escalation stage with enrollment in an expansion stage to follow. During the single-agent dose escalation, cohorts were evaluated at escalating dose levels to determine the MTD or maximum administered dose (MAD).
(§2) Continuous once daily dosing was commenced during the treatment period starting on Cycle 1 Day 1.

CYP2C9 = target: T2, CYP2C9 (Homo sapiens, UniProt P11712); assay: CYP2C9 metabolism dependent inhibition; type: in vitro ADME
T2 construct: from tissue; host or cells: human liver microsomes
T2 sequence (P11712 whole entry): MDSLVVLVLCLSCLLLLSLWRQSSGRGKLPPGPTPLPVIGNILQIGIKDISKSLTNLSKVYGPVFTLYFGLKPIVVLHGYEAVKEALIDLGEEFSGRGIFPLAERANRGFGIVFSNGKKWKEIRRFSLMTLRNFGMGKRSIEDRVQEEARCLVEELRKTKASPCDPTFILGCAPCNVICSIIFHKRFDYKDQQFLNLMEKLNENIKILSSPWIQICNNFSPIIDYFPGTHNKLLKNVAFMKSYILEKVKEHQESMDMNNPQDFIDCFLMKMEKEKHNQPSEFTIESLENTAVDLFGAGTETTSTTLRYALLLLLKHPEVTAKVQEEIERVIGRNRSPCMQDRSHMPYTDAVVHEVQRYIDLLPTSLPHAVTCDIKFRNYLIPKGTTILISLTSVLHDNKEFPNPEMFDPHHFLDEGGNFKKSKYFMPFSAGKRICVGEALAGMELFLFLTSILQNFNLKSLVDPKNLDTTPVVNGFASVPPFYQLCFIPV

[7] = Four-week GLP repeat-dose oral toxicity study in female monkeys
[8] = Four-week GLP repeat-dose oral toxicity study in female rats
[9] = tested on: locally advanced or metastatic ER-positive breast cancer; conditions: for Response / Response, per cent in parentheses: one line per patient
Description: as §1
Patients were monitored for adverse events during a dose-limiting toxicity (DLT) assessment window, defined as Days −7 to 28 of Cycle 1 (single-agent cohorts). For DLT evaluation, toxicity was graded according to the National Cancer Institute Common Terminology Criteria for Adverse Events, Version 4.0 (NCI CTCAE v4.0).
Patients enrolled in the single-agent Compound B dose-escalation stage, which consists of a screening period, a PK lead-in period, a treatment period, and a safety follow-up period. Continuous once daily dosing was commenced during the treatment period starting on Cycle 1 Day 1. […] The dose will be increased by up to 200% of the preceding dose level for each successive cohort, until a safety finding of concern (i.e., either a DLT, any patient with Grade ≥2 clinically significant toxicity or overall adverse event profile inappropriate for 200% increments) is observed. Once safety findings of concern are observed, dose escalation will not exceed 100% increments.

CYP = assay: In vitro CYP inhibition (human liver microsomes) and induction (human hepatocytes) studies; type: in vitro ADME; conditions: induction in human hepatocytes
[10] = female, rat, in vivo, po, 28 days
[11] = in vivo
Description: as §1, §2

[12] = In vitro metabolite identification; type: in vitro ADME
CYP3A4 = CYP3A4 (Homo sapiens, UniProt P08684); conditions: read-out: CYP3A4 inhibition IC50, direct inhibition, human liver microsomes
Sequence of CYP3A4 (P08684 whole entry): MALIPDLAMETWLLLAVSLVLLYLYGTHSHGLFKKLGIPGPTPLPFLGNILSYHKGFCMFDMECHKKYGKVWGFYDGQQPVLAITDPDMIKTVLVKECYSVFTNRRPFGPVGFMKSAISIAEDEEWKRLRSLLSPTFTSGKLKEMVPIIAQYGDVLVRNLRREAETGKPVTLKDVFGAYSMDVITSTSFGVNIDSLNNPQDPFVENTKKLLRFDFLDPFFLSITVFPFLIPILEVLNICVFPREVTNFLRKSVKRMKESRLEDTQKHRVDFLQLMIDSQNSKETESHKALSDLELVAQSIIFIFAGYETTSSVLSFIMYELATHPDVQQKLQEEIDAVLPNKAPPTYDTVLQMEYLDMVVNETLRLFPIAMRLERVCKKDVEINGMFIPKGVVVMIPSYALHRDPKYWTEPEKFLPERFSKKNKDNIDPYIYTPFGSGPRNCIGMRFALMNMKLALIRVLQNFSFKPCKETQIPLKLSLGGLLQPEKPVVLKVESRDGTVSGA

CYP2B6 = target: T3, CYP2B6 (Homo sapiens, UniProt P20813); assay: CYP2B6 inhibition in human liver microsomes; type: in vitro ADME
T3 construct: from tissue; host or cells: human liver microsomes
T3 sequence (P20813 1-491): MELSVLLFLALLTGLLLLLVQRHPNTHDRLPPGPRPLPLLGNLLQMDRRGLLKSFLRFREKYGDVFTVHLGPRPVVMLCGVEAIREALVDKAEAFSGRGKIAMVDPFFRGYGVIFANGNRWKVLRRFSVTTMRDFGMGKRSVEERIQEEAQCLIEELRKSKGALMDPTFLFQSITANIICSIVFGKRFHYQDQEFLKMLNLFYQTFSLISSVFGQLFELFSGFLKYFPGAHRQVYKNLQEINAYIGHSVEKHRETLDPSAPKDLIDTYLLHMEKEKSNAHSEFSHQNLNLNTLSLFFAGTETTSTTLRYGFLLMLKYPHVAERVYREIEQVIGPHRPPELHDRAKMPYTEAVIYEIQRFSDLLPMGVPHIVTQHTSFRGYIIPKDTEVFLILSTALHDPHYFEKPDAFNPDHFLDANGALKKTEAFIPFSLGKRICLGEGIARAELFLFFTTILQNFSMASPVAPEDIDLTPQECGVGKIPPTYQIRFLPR

[13] = female, monkey, plasma, po, 60 mg/kg/day
[14] = female, rat, plasma, po, 100 mg/kg

## C[C@@H]1Cc2c([nH]c3ccccc23)[C@@H](c2c(F)cc(NC3CN(CCCF)C3)cc2F)N1CC(F)(F)CO [Compound B, 3-((1R,3R)-1-(2,6-difluoro-4-((1-(3-fluoropropyl)azetidin-3-yl)amino)phenyl)-3-methyl-1,3,4,9-tetrahydro-2H-pyrido[3,4-b]indol-2-yl)-2,2-difluoropropan-1-ol tartrate]
[1]; in vivo
  Tolerability of doses in xenograft models: well tolerated
[1]; including patient-derived xenograft with ESR1 mutation (ER.Y537S)
  Anti-tumor activity: dose-dependent anti-tumor activity
[1]; vs GDC-0927
  Fold lower dose giving same in vivo efficacy as GDC-0927: 100 ×
[1]; xenograft models
  Efficacious dose range: 0.1 to 10 mg/kg/day
CYP2C8
  IC50: 21 µM
[2]; female, po, 28 days
  Highest non-severely toxic dose: 60 mg/kg/day
[2]; 200 mg/kg
  Tolerability at high dose: not tolerated
[3]
  bioavailability: 41 to 55%
[4]
  Inhibition of proliferation: potently inhibits
[5]
  Potency of competitive binding to ER LBD: nanomolar potency
[6]; organic solvent or mixture, thermodynamic from solid, 1,4-Dioxane
  solubility: < 2200 µg/mL
[6]; organic solvent or mixture, thermodynamic from solid, 2-MeTHF
  solubility: < 1900 µg/mL
[6]; organic solvent or mixture, thermodynamic from solid, ACN
  solubility: < 2100 µg/mL
[6]; organic solvent or mixture, thermodynamic from solid, Acetone
  solubility: 2100 to 7000 µg/mL
[6]; organic solvent or mixture, thermodynamic from solid, Anisole
  solubility: < 1900 µg/mL
[6]; organic solvent or mixture, thermodynamic from solid, CPME
  solubility: < 2100 µg/mL
[6]; organic solvent or mixture, thermodynamic from solid, DCM
  solubility: < 2000 µg/mL
[6]; organic solvent or mixture, thermodynamic from solid, DMSO
  solubility: > 38000 µg/mL
[6]; organic solvent or mixture, thermodynamic from solid, EtOAc
  solubility: < 1900 µg/mL
[6]; organic solvent or mixture, thermodynamic from solid, EtOH
  solubility: < 1900 µg/mL
[6]; organic solvent or mixture, thermodynamic from solid, IPA
  solubility: < 2100 µg/mL
[6]; organic solvent or mixture, thermodynamic from solid, IPAc
  solubility: < 1900 µg/mL
[6]; organic solvent or mixture, thermodynamic from solid, MEK
  solubility: < 2000 µg/mL
[6]; organic solvent or mixture, thermodynamic from solid, MIBK
  solubility: < 1900 µg/mL
[6]; organic solvent or mixture, thermodynamic from solid, MTBE
  solubility: < 2100 µg/mL
[6]; organic solvent or mixture, thermodynamic from solid, MeOH
  solubility: 6700 to 20000 µg/mL
[6]; organic solvent or mixture, thermodynamic from solid, THF
  solubility: 2100 to 7000 µg/mL
[6]; organic solvent or mixture, thermodynamic from solid, Toluene
  solubility: < 1900 µg/mL
[6]; organic solvent or mixture, thermodynamic from solid, n-Heptane
  solubility: < 2000 µg/mL
[6]; water, thermodynamic from solid, H2O
  solubility: < 1900 µg/mL
clinical
  half-life: ~40 h
CYP2C9
  Metabolism dependent inhibition of CYP2C9: weak
[7]; female, monkey, in vivo, po
  MTD at 4 weeks: 60 mg/kg
[7]; [13]
  AUC(0-t): 16200 ng·h/mL
  Cmax: 841 ng/mL
[7]; monkeys
  Exposure multiple (AUC) over anticipated human Phase I starting dose at which PLD was observed: ≥ 6 fold
[7]; monkeys, 20 mg/kg
  Exposure factor: 6 fold
  PLD finding: limited to minimal changes in the lung
[7]; monkeys, 28-day oral
  Increase in systemic exposure with dose: dose proportional
[8]; [14]
  AUC(0-t): 143000 ng·h/mL
  Cmax: 6560 ng/mL
[8]; rats
  Exposure multiple (AUC) over anticipated human Phase I starting dose at which PLD was observed: at least 44 fold
[8]; rats, 10 mg/kg
  Exposure factor: 18 fold
  PLD finding: not noted
[8]; rats, 28-day oral
  Increase in systemic exposure with dose: dose proportional
[9]; 10 mg, after 3 cycles
  Response of individual patient (CT, FES-PET): showed response
[9]; all treated patients with FES-PET, qualitative
  FES-PET response: near-complete (NC) or complete responses (CR)
[9]; cohort 1 (10 mg), tartrate
  Response: uPR
  Response, per cent in parentheses: −40% and −27%
[9]; cohort 1-BF (10 mg)
  Response: cPD
[9]; cohort 2 (30 mg)
  Response, per cent in parentheses: −9%
[9]; in vivo
  DLTs, SAEs, AESIs, clinically significant laboratory abnormalities: no observed
CYP
  Potential for drug-drug interactions: low-to-moderate
[10]
  Severely toxic dose for 10% of animals (STD10): 100 mg/kg
[11]
  Plasma exposure vs dose: increased proportionally
  Steady state exposure vs dose: higher than dose proportional
[12]
  Major in vitro metabolic pathway: UGT1A4-mediated glucuronidation
CYP3A4; midazolam 1′-hydroxylation
  IC50: 6.5 µM
CYP3A4; testosterone 6β-hydroxylation
  IC50: 26 µM
CYP2B6
  IC50: 13 µM
